In article PMC5642598, “Histone deacetylase inhibitor thailandepsin-A activates Notch signaling and suppresses neuroendocrine cancer cell growth in vivo” (Oncotarget, 2017):

Target: T1, HDAC1 (Homo sapiens, UniProt Q13547)
T1 construct: HDAC1-NanoLuc fusion protein
Assay: NanoBRET target engagement in live TT cells, competitive displacement of HDAC Tracer-01
Format: cell-based
From the text: NanoBRET target engagement in live TT cells, competitive displacement of HDAC Tracer-01 on HDAC1 | TDP-A dose-dependently attenuated BRET from intracellular HDAC1-NanoLuc fusion protein (Figure 1B) in low nanomolar concentrations

T1 sequence (Q13547 whole entry, the tested form may be a part): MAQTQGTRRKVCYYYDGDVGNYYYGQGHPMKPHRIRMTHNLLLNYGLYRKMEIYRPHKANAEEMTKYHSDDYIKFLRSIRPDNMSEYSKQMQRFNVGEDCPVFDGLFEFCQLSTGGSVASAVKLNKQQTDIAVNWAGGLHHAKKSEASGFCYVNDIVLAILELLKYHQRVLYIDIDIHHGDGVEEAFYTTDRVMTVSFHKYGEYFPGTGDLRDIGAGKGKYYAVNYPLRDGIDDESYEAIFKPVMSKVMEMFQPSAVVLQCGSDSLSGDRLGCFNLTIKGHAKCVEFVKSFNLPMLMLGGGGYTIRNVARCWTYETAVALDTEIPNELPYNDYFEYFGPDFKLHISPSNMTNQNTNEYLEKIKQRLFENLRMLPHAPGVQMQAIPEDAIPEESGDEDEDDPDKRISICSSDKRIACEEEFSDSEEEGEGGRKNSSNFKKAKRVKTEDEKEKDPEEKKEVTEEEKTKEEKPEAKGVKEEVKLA

CC[C@H](C)[C@H]1NC(=O)[C@H]2CSSCC/C=C/[C@H](CC(=O)N[C@H](CCSC)C(=O)N2)OC(=O)C[C@@H]1O [TDP-A, thailandepsin A]
EC50: 6.8 nM
